Test results: patent publication US20200129492A1, “TREATMENT OF CANCER WITH DIHYDROPYRIDINES” (MENRI GROUP LTD., priority 2017, published 2020)
Like-named read-outs stand apart in the source and are kept apart here.

Legend:
Assay type in all cases: cell-based
[1] = test system: NSCLC A549 lung cancer cells; assay: XTT assay, cell proliferation after 72 hours incubation, IC50
Description: (§1) Example 10 (see also FIG. 10) is a study to determine the effect of the combination of calcium blockers on the proliferation of cancer cells. NSCLC A549 lung cancer cells were incubated with various concentrations of a combination of calcium blockers ranging from 1 μM to 50 μM. […] An XTT assay was then performed. The cell proliferation was then calculated. Results are representative of at least three independent experiments. IC50 was calculated from the % inhibition data.

A549 lung cancer cells [2] = assay: Intracellular free calcium, Fura-2-AM fluorescence measurement
Description: The intracellular free calcium measurement was done using Fura-2-AM fluorescence measurement. […] Ionomycin was used as the positive control for stimulation of calcium entry. Calcium was removed from the medium at the end of each experiment via addition of EGTA or replacement of the medium with calcium free medium. The calculation of the absolute calcium concentration was performed using a standard calcium curve. An average of 15 cells is shown.
The intracellular free calcium measurement was done using Fura-2-AM fluorescence measurement. […] The calculation of the absolute calcium concentration was performed using a standard calcium curve. An average of 15 cells is shown.
The intracellular free calcium measurement was done using Fura-2-AM fluorescence measurement. […] Ionomycin was used as the positive control for stimulation of calcium entry.

A549 lung cancer cells [3] = assay: XTT assay, cell proliferation 48 hours after addition; details: increasing concentrations
Description: An XTT assay was performed 48 hours after the addition of nitrendipine at increasing concentrations. The cell proliferation was then calculated. Results are representative of at least three independent experiments. The results are illustrated in FIG. 1B. […] Without limitation by theory, it is theorized that nitrendipine lethally flooded the cells with calcium at the noted concentrations.
(§2) An XTT assay was performed 48 hours after the addition of nicardipine at increasing concentrations. The cell proliferation was then calculated. Results are representative of at least three independent experiments. The results are illustrated in FIG. 2B. […] Without limitation by theory, it is theorized that the nicardipine-initiated block of the entry of extracellular free calcium inhibits the cell's ability to undergo or successfully finish cytokinesis, and this may lead to cell death.
as §2, with “nisoldipine” for “nicardipine”, “4B.” for “2B.”, “nisoldipine-initiated” for “nicardipine-initiated”, “cytokinesis” for “cytokinesis,”
as §2, with “The” for “An XTT assay was performed 48 hours after the addition of nicardipine at increasing concentrations. The”, “7B.” for “2B.”, “loperamide-initiated” for “nicardipine-initiated”

[4] = test system: NSCLC A549 lung cancer cells; assay: XTT assay, cell proliferation after 24 hours incubation
Description: Example 6 was a study to determine the effect of treatment with nitrendipine and the dihydropyridine of Formula IV above on the proliferation of cancer cells. NSCLC A549 lung cancer cells were incubated with various concentrations of nitrendipine and the dihydropyridine of Formula IV ranging from 1 μM to 100 μM. 5000 cells were plated in RPMI medium per well and incubated with either the individual drugs for 24 hours. An XTT assay was then performed. The cell proliferation was then calculated. FIG. 6 is a graphical representation of the results.
as §1, with “8 was” for “10 (see also FIG. 10) is”, “μM. In this specific example, the combination of loperamide and the dihydropyridine, nitrendipine, was used.” for “μM.”, “FIG. 8 is a graphical representation of” for “IC50 was calculated from”, “results.” for “% inhibition data.”
as §1, with “9” for “10 (see also FIG. 10)”, “μM. In this specific example, the combination of loperamide and the dihydropyridine, nicardipine, was used.” for “μM.”, “FIG. 9 is a graphical representation of” for “IC50 was calculated from”, “results.” for “% inhibition data.”

[5] = Homo sapiens, A549, compound alone plus DMSO, 72 hours, read-out: Plus DMSO (Control), IC-50
[6] = read-out: Plus Loperamide, IC-50, in combination with loperamide (5 uM per FIG. 10), 72 hours
[7] = compound alone plus DMSO, 72 hours

COC(=O)C1=C(C)NC(C)=C(C(=O)OCCCN2CCC(c3ccccc3)(c3ccccc3)CC2)[C@H]1c1cccc([N+](=O)[O-])c1 [Niguldipine]
IC50 ([1]; Homo sapiens, A549, 72 h, read-out: Plus DMSO (Control), IC-50): 5.37 µM | IC50 ([1]; read-out: Plus Loperamide, IC-50): 3.12 µM

CCOC(=O)C1=C(C)NC(C)=C(C(=O)OCC)C1c1ccccc1/C=C/C(=O)OC(C)(C)C [Lacidipine]
IC50 [1, 5]: 16 µM

CCOC(=O)C1=C(C)NC(C)=C(C(=O)OC)C1c1cccc([N+](=O)[O-])c1 (racemic) [Nitrendipine, (RS)-3-Ethyl 5-methyl 2,6-dimethyl-4-(m-nitrophenyl)-1,4-dihydropyridine-3,5-dicarboxylate]
effect on intracellular free calcium (A549 lung cancer cells [2]; 1 μM and 5 μM treatments): functions as an agonist for the entry of extracellular calcium | concentration of intracellular calcium versus positive control (ionomycin) (A549 lung cancer cells [2]; 5 μM treatment): greater than that of the positive control | effect on intracellular free calcium (A549 lung cancer cells [2]; consecutive treatments with nitrendipine and nicardipine, 20 μM each): floods the cells with calcium | percentage of cell growth (A549 lung cancer cells [3]): decreases as the concentration of nitrendipine is increased | Avg. % proliferation ([4]; Example 6, 1 μM): 86.24% | Avg. % proliferation ([4]; Example 6, 5 μM): 87.19% | Avg. % proliferation ([4]; Example 6, 10 μM): 75.97% | Avg. % proliferation ([4]; Example 6, 50 μM): 52.21% | Avg. % proliferation ([4]; Example 6, 100 μM): 24.42% | Avg. % proliferation ([4]; Example 8, 1 μM): 102.33% | Avg. % proliferation ([4]; Example 8, 5 μM): 93.35% | Avg. % proliferation ([4]; Example 8, 10 μM): 102.58% | Avg. % proliferation ([4]; Example 8, 50 μM): 71.43%

CC1=C(C(=O)OC(C)C)C(c2cccc([N+](=O)[O-])c2)C(C(=O)OC2CN(C(c3ccccc3)c3ccccc3)C2)=C(N)N1 (centres unmarked) [Azelnidipine]
IC50 [1, 5]: 8.5 µM | IC50 [1, 6]: 4.8 µM

COC(=O)C1=C(C)NC(C)=C(C(=O)OCCN2CCN(C(c3ccccc3)c3ccccc3)CC2)C1c1cccc([N+](=O)[O-])c1 (centres unmarked) [Manidipine]
IC50 [1, 5]: 8.2 µM

COC(=O)C1=C(C)NC(C)=C(C(=O)OC2CCCN(Cc3ccccc3)C2)C1c1cccc([N+](=O)[O-])c1 (centres unmarked) [Benidipine]
IC50 [1, 5]: 18 µM

COCCOC(=O)C1=C(C)NC(C)=C(C(=O)OC/C=C/c2ccccc2)C1c1cccc([N+](=O)[O-])c1 (centres unmarked) [Clinidipine]
IC50 ([1]; read-out: Plus DMSO (Control), IC-50): 41 µM

CCCC(=O)OCOC(=O)C1=C(C)NC(C)=C(C(=O)OC)C1c1cccc(Cl)c1Cl (centres unmarked) [Clevidipine]
IC50 [1, 5]: 23 µM

COC(=O)C1=C(C)NC(C)=C(C(=O)OCCN(C)Cc2ccccc2)C1c1cccc([N+](=O)[O-])c1 (centres unmarked) [Nicardipine, 2-[benzyl(methyl)amino]ethylmethyl-2,6-dimethyl-4-(3-nitrophenyl)-1,4-dihydropyridine-3,5-dicarboxylate]
Avg. % proliferation ([4]; Example 9, 1 μM): 99.90% | Avg. % proliferation ([4]; Example 9, 5 μM): 100.23% | Avg. % proliferation ([4]; Example 9, 10 μM): 86.20% | Avg. % proliferation ([4]; Example 9, 50 μM): 32.97% | IC50 [1, 5]: 13.7 µM | IC50 [1, 6]: 6.7 µM

CCOC(=O)C1=C(C)NC(C)=C(C(=O)OC)C1c1cccc(Cl)c1Cl (centres unmarked) [Felodipine]
IC50 [1, 5]: 26 µM

COc1ccc(CCN(C)CCCC(C#N)(c2ccc(OC)c(OC)c2)C(C)C)cc1OC (centres unmarked) [Verapamil]
Plus DMSO (Control), IC-50 [1]: No Activity

COCCOC(=O)C1=C(C)NC(C)=C(C(=O)OC(C)C)C1c1cccc([N+](=O)[O-])c1 (centres unmarked) [Nimodipine]
Plus DMSO (Control), IC-50 [1, 7]: No Activity

COc1ccc([C@@H]2Sc3ccccc3N(CCN(C)C)C(=O)[C@@H]2OC(C)=O)cc1 [Diltiazem]
Plus DMSO (Control), IC-50 [1, 7]: No Activity

COC(=O)C1=C(C)NC(C)=C(C(=O)OCC(C)C)C1c1ccccc1[N+](=O)[O-] (centres unmarked) [nisoldipine, isobutyl methyl 2,6-dimethyl4-(2-nitrophenyl)-1,4-dihydropyridine-3,5-dicarboxylate]
effect on intracellular free calcium (A549 lung cancer cells [2]; 5 μM and 10 μM treatments): blocks the influx of extracellular calcium | percentage of cell growth (A549 lung cancer cells [3]): decreases as the concentration of nisoldipine is increased

COC(=O)C1=C(C)NC(C)=C(C(=O)OC(C)C)C1c1cccc2nonc12 (centres unmarked) [Isradipine]
IC50 [1, 5]: 26 µM

CCOC(=O)C1=C(C)NC(C)=C(C(=O)OC)C1c1ccccc1 (centres unmarked) [Formula IV, 5-O-ethyl 3-O-methyl 2,6-dimethyl-4-phenyl-1,4-dihydropyridine-3,5-dicarboxylate]
effect on intracellular free calcium (A549 lung cancer cells [2]; 5 μM and 50 μM treatments): blocks the influx of extracellular calcium | Avg. % proliferation ([4]; Example 6, 5 μM): 96.4% | Avg. % proliferation ([4]; Example 6, 10 μM): 104.2% | Avg. % proliferation ([4]; Example 6, 50 μM): 79.06% | Avg. % proliferation ([4]; Example 6, 100 μM): 67.8%

COC(=O)C1=C(C#N)NC(C)=C(C(=O)OC(C)C)C1c1cccc([N+](=O)[O-])c1 (centres unmarked) [Nilvadipine]
IC50 [1, 5]: 17.6 µM

COC(=O)C1=C(C)NC(C)=C(C(=O)OC)C1c1ccccc1[N+](=O)[O-] [Nifedipine]
Plus DMSO (Control), IC-50 [1, 7]: No Activity

COC(=O)C1=C(C)NC(C)=C(C(=O)OC(C)(C)CN(C)CCC(c2ccccc2)c2ccccc2)C1c1cccc([N+](=O)[O-])c1 (racemic) [Lercanidipine]
IC50 [1, 5]: 7.7 µM | IC50 [1, 6]: 3.95 µM

CC1=C(C(=O)OCCN(Cc2ccccc2)c2ccccc2)C(c2cccc([N+](=O)[O-])c2)C(P2(=O)OCC(C)(C)CO2)=C(C)N1 (centres unmarked) [Efonidipine]
IC50 [1, 5]: 10.2 µM

CCOC(=O)C1=C(COCCN)NC(C)=C(C(=O)OC)C1c1ccccc1Cl (centres unmarked) [Amlodipine]
IC50 [1, 5]: 22 µM

CN(C)C(=O)C(CCN1CCC(O)(c2ccc(Cl)cc2)CC1)(c1ccccc1)c1ccccc1 [Loperamide, 4-[4-(4-Chlorophenyl)-4-hydroxypiperidin-1-yl]-N,N-dimethyl-2,2-diphenylbutanamide]
effect on intracellular free calcium (A549 lung cancer cells [2]; 5 μM and 50 μM treatments): blocks the influx of extracellular calcium | percentage of cell growth (A549 lung cancer cells [3]): decreases as the concentration of loperamide is increased | Avg. % proliferation ([4]; Example 8, 1 μM): 98.07% | Avg. % proliferation ([4]; Example 8, 5 μM): 99.77% | Avg. % proliferation ([4]; Example 8, 10 μM): 96.09% | Avg. % proliferation ([4]; Example 8, 50 μM): 34.04% | Avg. % proliferation ([4]; Example 9, 1 μM): 92.73% | Avg. % proliferation ([4]; Example 9, 5 μM): 86.97% | Avg. % proliferation ([4]; Example 9, 10 μM): 90.33% | Avg. % proliferation ([4]; Example 9, 50 μM): 32.03%
